In the case of O=C(O)C1=Cc2c(ccc(Cl)c2-c2ccsc2)OC1C(F)(F)F (stereo not given), the melting point is reported as 211 to 214 °C.
CN(C)CCCOc1ccc(N(C(=O)c2ccc([N+](=O)[O-])cc2)c2ccccc2)cc1 showed a melting point of 89.5 to 92.5 °C.
Work on CC(C)n1cnc(-c2ccc(F)cc2)c1-c1ccncc1 yielded a melting point of 179 to 180 °C.
N#CNc1nc2c(s1)Cc1cc(Cl)ccc1-2 gave a melting point of 225 °C.
For O=C(O)Cc1cccc2c1ccn2Cc1ccccc1, the melting point was 138 to 140 °C.
With CC(C#N)(CNC(=O)c1nn(C2CCCCO2)cc1NC(=O)c1ccccn1)Cc1ccccc1 (stereo not given) the melting point was 187 to 190 °C.
For C[C@@H]1CCCN1CCc1ccc2cc(-c3ccc(=O)[nH]n3)ccc2c1, the melting point was 295 to 298 °C.
NC(=O)Cc1c(F)cccc1C(F)(F)F gave a melting point of 172 to 174 °C.
In the case of COc1cc2c(cc1OC)CC(NC(=O)N(C)O)C2, the melting point is reported as 165 to 166 °C.
In the case of Cn1nnc2c(N3CCNCC3)ncnc21, the melting point is reported as 95 to 96 °C.
For O=C(CCNc1c(C(=O)O)[nH]c2cc(Cl)cc(Cl)c12)c1ccccc1Cc1ccccc1, the melting point was 280 to 283 °C.
In the case of Cc1cc(Oc2ncc(C(F)(F)F)cc2Cl)nn1C(=S)NCc1ccc(Cl)cc1, the melting point is reported as 119 to 121 °C.
Work on COc1ccc2c(c1)CCC1C3CCC(=O)C3(C)CCC21O (stereo not given) yielded a melting point of 69 to 74 °C.
With CC#CN1N=C(c2ccc(F)cc2)c2cc(Cl)ccc2CS1(=O)=O the melting point was 139 to 140 °C.
O=C(O)COc1ccc(SCc2ccc(OCc3ccc(Cl)c(Cl)c3)cc2)c2c1CCC2 gave a melting point of 168 °C.
In the case of N#Cc1c(C(F)(F)F)[nH]c2cc(Cl)c(Cl)cc12, the melting point is reported as > 260 °C.
COCCNC(=O)c1cccc(-c2c(F)ccc3cc(Cc4cccc(C(F)(F)F)c4)sc23)c1 gave a melting point of 116 to 117 °C.
Work on CCOc1nc(CC)c(CNC(=O)C(S)CC(C)C)n1Cc1ccc(-c2ccccc2C(=O)O)cc1F (stereo not given) yielded a melting point of 151 °C.
In the case of NC(=O)CC[C@H]1CN(c2ccc(C(=O)c3cnc4ccc(C(F)(F)F)cn34)cc2)C(=O)O1, the melting point is reported as 243 to 245 °C.
In the case of CN(C)C(=O)OC1c2nccnc2C(=O)N1c1ccc2ccc(Cl)nc2n1 (stereo not given), the melting point is reported as 270 °C.
For O=C(O)C1=CCCN1C(=O)CCSSCCC(=O)N1CCC=C1C(=O)O, the melting point was 158 to 160 °C.
Molecule NC(=O)c1ccc(NCc2ccc(F)cc2)cn1 has a melting point of 166 to 169 °C.
Work on CC(=O)Nc1ccc(-c2cc(C(=O)c3ccncc3)sc2N2CCOCC2)cc1 yielded a melting point of 149 °C.
Cc1ccc(C(=O)Nc2ccc(-n3ccnc3)c(C(F)(F)F)c2)cc1Nc1nccc(-c2cccnc2)n1 showed a melting point of 226 to 229 °C.
Molecule COc1cccc(C(O)(c2nccs2)C(F)(F)F)c1 (stereo not given) has a melting point of 88 to 92 °C.
Cc1oc(-c2ccccc2)nc1COc1ccc2cc(CC3OC(=O)NC3=O)oc2c1 (stereo not given) gave a melting point of 172 to 173 °C.
In the case of O=C(Nc1nccs1)c1nc(-c2ccc(N3CCCCCC3)cc2)[nH]c1-c1ccc(Cl)cc1, the melting point is reported as 246 to 247 °C.
In the case of NC(=O)NCCSCC(=O)O, the melting point is reported as 135 °C.
For Cc1ccnc(N2CCN(CCCCC3Sc4ccccc4NC3=O)CC2)c1 (stereo not given), the melting point was 119 °C.
For CCCOC(=O)CCNCC(O)COc1ccccc1C#N (stereo not given), the melting point was 89 °C.
With Cn1cc2c(n1)SSSSS2 the melting point was 94 to 102 °C.
Molecule COc1ccc(S(=O)(=O)C2(C(=O)NO)CCN(CCOc3ccccc3)CC2)cc1 has a melting point of 168 to 172 °C.
Molecule COC(=O)c1cccnc1Cn1cccc1C=O has a melting point of 91 to 93 °C.
Cc1cc(-c2c3ccccc3c(C)c3sc4ccccc4c23)cc(C)c1OCC(=O)O gave a melting point of 155 to 181 °C.
COCc1cnc2c([N+](=O)[O-])cccc2c1Cl showed a melting point of 91 to 94 °C.
Molecule CCOC(=O)N1CCN(C2Cc3cc(Cl)ccc3Sc3ccccc32)CC1 (stereo not given) has a melting point of 92 to 93 °C.
For O=c1c2c(CCCCCCc3ccccc3)n[nH]c2c2cccnc2n1-c1ccccc1, the melting point was 150 to 151 °C.
For O=C(O)CCCCN1CCN(C2=Nc3ccccc3Cc3ccccc32)CC1, the melting point was 235 to 237 °C.
With CC(C)(C)OC(=O)N1CC2CC(CN(CCCOc3ccc(C#N)cc3O)C2)C1 the melting point was 127 to 130 °C.
With CC1(C)N=C(c2ccccc2F)c2cc(I)ccc2NC1=O the melting point was 212 °C.
In the case of CCCNC(=O)C(=O)CCC(=O)O, the melting point is reported as 79 to 81 °C.
For Cc1c(C(=O)Nc2ccc(N3CCC(N4CCOCC4)CC3)cc2C#N)cnn1-c1ccc(C(F)(F)F)cc1, the melting point was 210 to 212 °C.
CNC(=O)C(=O)CCCCCCc1csc(-c2ccccc2)n1 showed a melting point of 70 to 72 °C.
CCOC(=O)c1cc2cccc(OCc3ccccc3)c2cc1O showed a melting point of 98 to 115 °C.
For CCc1ccc2c(c1)NC(=S)C2=O, the melting point was 213 to 214 °C.
For O=[N+]([O-])c1ccc(S(=O)(=O)Nc2ccccc2)cc1, the melting point was 154 to 156 °C.
Cn1cc(Cl)cc(Br)c1=O gave a melting point of 162 to 163 °C.
In the case of Cc1cc(F)c(Br)cc1CC(=O)O, the melting point is reported as 100 to 101 °C.
Cn1c(C(=O)NN2CCCCC2)cc(-c2ccc(Cl)cc2Cl)c1-c1ccc(Cl)cc1 showed a melting point of 218 °C.
In the case of COCc1nnc(-c2cccnc2)n1-c1c(Cl)c(C)cc2nc(OC)c(OC)nc12, the melting point is reported as 183 to 184 °C.
In the case of OC1(CNCc2ccccc2)CCN(CCCc2c[nH]c3ccc(-n4cnnc4)cc23)C1 (stereo not given), the melting point is reported as > 61 °C.
With O=C1CCN(Cc2ccc(O)cc2)CC1C1c2ccccc2C=Cc2ccccc21 (stereo not given) the melting point was 156 to 157 °C.
With COc1ccc2c(c1)c(CCON)c(C)n2Cc1ccc(Cl)cc1 the melting point was 92 to 94 °C.
In the case of Cc1ccc(S(=O)(=O)OCCCC(O)c2cccc3c(=O)c(C)c(-c4ccccc4)oc23)cc1 (stereo not given), the melting point is reported as 123 to 124 °C.
With COc1cccc(-c2ccc3c(C(=O)Nc4onc(C)c4C)c(OC)ccc3c2)c1 the melting point was 124 °C.
O=C(NCCO)c1cnc(C(F)(F)F)s1 gave a melting point of 128 to 130 °C.
With CCCCCCNC(=O)n1nc(Oc2ncc(C(F)(F)F)cc2Cl)c(Cl)c1C the melting point was 57 to 59 °C.
O=C1c2cnc3[nH]ncc3c2C(=O)N1CCc1ccccc1 gave a melting point of 237 to 239 °C.
Work on CONc1cc(Cl)nc(S(C)(=O)=O)n1 yielded a melting point of 135 °C.
Cc1cc2c(cc1N1CCOCC1)OC(=O)C2C (stereo not given) gave a melting point of 108 to 109 °C.
For CCSc1ccnc(Cl)c1C#N, the melting point was 97 to 98 °C.
In the case of COC(=O)C(=O)c1ccc(OCCSc2ccc3ccccc3c2)cc1, the melting point is reported as 63 to 65 °C.
Molecule CC1CC(=O)c2c(Cl)c(F)cc3c(=O)c(C(=O)O)cn1c23 (single isomer, unassigned; (-)) has a melting point of 294 to 296 °C.
With CCN(CC)CCOc1cccc2c1c1cccc(Cl)c1n2Cc1ccccc1 the melting point was 73.5 to 75 °C.
Molecule CCCCCCCNC(=O)N(CCC)c1cccc(-c2ccc(CCC(=O)O)cc2)c1 has a melting point of 79 °C.
Work on Cc1nc2cc(-c3ccc(C=C4SC(=O)NC4=O)cn3)cc(OCc3ccccc3)c2o1 yielded a melting point of 245 °C.
CC(C)CCc1c(-c2ccc(S(C)(=O)=O)c(F)c2)cnn(-c2ccc(F)c(Cl)c2)c1=O gave a melting point of 102 to 104 °C.
With COc1ccc(CNc2nc(NCCCc3cccc(C(C)=O)c3)nc3ncccc23)cc1OC the melting point was 152 to 155 °C.
In the case of Cc1csc(C2=NOCCO2)c1S(N)(=O)=O, the melting point is reported as 155 °C.
In the case of CCCCCCCCCOC1C(O)C(CO)OC1n1cnc2c(N)ncnc21 (stereo not given), the melting point is reported as 143 to 144 °C.
Work on COc1ccc(-c2cc(=O)c3c(OC)c(I)c(OC)cc3o2)cc1 yielded a melting point of 191 to 194 °C.
CN(C)C(=O)c1cccnc1S(N)(=O)=O showed a melting point of 188 to 191 °C.
With Cn1c2ccccc2c2nc3c(CO)cccc3nc21 the melting point was 191 to 194 °C.
Work on O=C(Nc1cccc(S(=O)(=O)N2CCCC2)c1)c1cnn2c(C(F)F)cc(-c3ccc(Cl)cc3)nc12 yielded a melting point of 227 °C.
With CCN1C(=O)C(C)(C)C(=O)N(C)c2cc(CN(CCn3ccc4oc(C)cc4c3=O)Cc3cc(COC)nn3C)ccc21 the melting point was 113 to 115 °C.
COc1cc(Sc2ccccc2CO)ccc1Cl showed a melting point of 78 to 80 °C.
CCOC(=O)c1cc2cc(OCCCCCBr)ccc2o1 gave a melting point of 31 °C.
c1csc(-c2n[nH]c3c2sc2ccccc23)c1 showed a melting point of 236 to 238 °C.
With COc1cc(C(=O)O)ccc1Cc1cccc2ccc(C(N)=O)cc12 the melting point was 283 to 285 °C.
O=C(O)c1nccn1C(c1ccccc1)c1ccccc1 gave a melting point of 191 °C.
In the case of CCOC(=O)c1sc(NC(C)=O)nc1CCc1ccc(NC(=O)OC(C)(C)C)cc1, the melting point is reported as 213 to 214 °C.
Molecule CNC(=O)N1CC(=O)Nc2ccc([N+](=O)[O-])cc2C1c1ccccc1 (stereo not given) has a melting point of 176 to 180 °C.
In the case of Cc1cc(O)ccc1C(=O)N1CCN(C)CC1, the melting point is reported as 167 to 168 °C.
Work on COc1cc(N)ccc1C(=O)O yielded a melting point of 144 to 146 °C.
For CNc1nc2ccc(Cl)cc2c2nc(-c3ccco3)nn12, the melting point was 166 to 168 °C.
O=C1CC(c2cccc(-n3ccnc3)c2)=Nc2cc(O)c(C#Cc3ccc(F)cc3)cc2N1 showed a melting point of 247 °C.
In the case of CCCCN(CCCC)c1ccc(C=Cc2cc(C)c(C=CC3=C(C#N)C(=C(C#N)C#N)OC3(C)C)cc2C)c(OC)c1, the melting point is reported as 242 to 244 °C.
CC(C)(C)OC(=O)C[C@H](O)CC#N gave a melting point of 63 to 64 °C.
CNS(=O)(=O)c1cn(C)c2cc(F)ccc2c1=O showed a melting point of 255 to 257 °C.
In the case of COc1ccc(COC2CC(n3cc(C(F)(F)F)c(=O)n(C(=O)c4ccccc4)c3=O)OC2CO)cc1 (stereo not given), the melting point is reported as 152 to 153 °C.
With COc1cc2ncc(C#N)c(Nc3ccc(O)cc3C)c2cc1OC the melting point was > 250 °C.
With CCOC(=O)C(C)Oc1ccc(C(=O)Nc2ccccc2Sc2ccccc2-c2nnn[nH]2)cc1 (stereo not given) the melting point was 157 to 158 °C.
CCCCCNC(=O)n1nc(Oc2ncc(C(F)(F)F)cc2Cl)cc1C gave a melting point of 142 to 144 °C.
For Cc1c(C#N)c2c(c(C)c1NC(=O)CC(C)(C)C)C(c1ccc(C(C)C)cc1)CO2 (stereo not given), the melting point was 135 to 136 °C.
With CC1(C)CN=C(c2cnc3ccccc3c2)c2ccccc2O1 the melting point was 134 to 135 °C.
Work on O=C(O)C(=O)c1oc2cccc(OCc3ccc(F)cc3)c2c1O yielded a melting point of 195 to 200 °C.
Molecule COc1ccc(-c2nc(S(=O)(=O)C(F)(F)C(F)F)[nH]c2-c2cccs2)cc1 has a melting point of 163 to 164 °C.
CCc1nc2c(C(N)=O)cccc2n1-c1ccc(CCNC(=O)NS(=O)(=O)c2ccc(C)cc2)cc1 showed a melting point of 208 to 214 °C.
In the case of CC(=O)N1CCSC1c1nsc2ccc(-n3c(=O)cc(C(F)(F)F)n(C)c3=O)cc12 (stereo not given), the melting point is reported as 135 to 140 °C.
For O=C1C=CC(=O)N1CCCCCCN1C(=O)C=CC1=O, the melting point was 136 to 139 °C.

Reference: a melting point compilation (Tetko et al.; mined from patent text by program, amines drawn as free bases though some values may be those of a salt)
